Like-named read-outs stand apart in the source and are kept apart here.
Experiments:
MCF-10A = assay: MTT cell viability assay on noncancerous MCF-10A cells, dark and 450 nm irradiation; assay type: cell-based, human; settings: for EC50: MTT
From the text: (C∧N) cyclometalated Pt(II) complexes have been previously reported to have strong antiproliferative activities when associated with phenanthroline-based, diphosphine, acyclic diamino carbenes, or picolinate ligands. In particular, (Me2N-pbt)-cyclometalated platinum complexes have been previously reported by some of us to have antiproliferative properties in the micromolar range on a panel of cancer cell lines, prompting us to investigate the anticancer properties of complexes 1–4 in dark conditions and, considering their high quantum yield (ϕΔ) of ^1O2 generation, under irradiation conditions. Due to the poor solubility of the complexes in an aqueous environment, complexes 1–4 were first dissolved in DMSO and diluted in the culture media to reach a final concentration of 1% DMSO when incubated with the cells. All complexes were screened against the so-called “triple-negative” breast cancer cell line MDA-MB-231, lung adenocarcinoma cell line A549, and the noncancerous breast cell line MCF-10A for 72 h in dark conditions and under 5 min irradiation at 450 nm (see Experimental Section for details). The irradiation time was kept short to prevent light-induced toxicity of the energetic wavelength observed at longer irradiation times (data not shown). The measurement of the effective concentration at 50% (EC50) was carried out using the classical MTT assay, and the data are provided in Table .
In dark conditions, we could notice a strong influence of substituents on the picolinate ligands. […] This can be correlated with its poor stability in the culture medium mentioned above, which might reduce its cellular uptake. […] However, in dark conditions, no particular selectivity for cancer cells could be observed with similar activity measured against the noncancerous cell line MCF-10A. For the “light” experiments, the cells were preincubated with the complexes for 4 h in the dark, irradiated at 450 nm for 5 min, and then put back in the dark until 72 h. The photoactivity index (PI) values, defined as the ratio between the EC50 in dark conditions and the EC50 after irradiation for each cell line, are shown in Figure .
The human lung adenocarcinoma cell line A549 and human breast cancer cell line MDA-MB-231 were cultivated in DMEM (Dulbecco’s modified Eagle’s medium) containing GlutaMax I supplemented with 10% FBS at 37 °C in a humidified atmosphere and 5% CO2. The noncancerous cell line MCF-10A was maintained in DMEM:F12 (1:1) cell culture media, 5% heat-inactivated horse serum, supplemented with HEPES (20 mM), L-glutamine (2 mM), epidermal growth factor (20 ng/mL), hydrocortisone (500 ng/mL), cholera toxin (100 ng/mL), and insulin (10 μg/mL). Cell viability was evaluated by using a colorimetric method based on the tetrazolium salt MTT [3-(4,5-dimethylthiazol-2-yl)-2,5-diphenyltetrazolium bromide], which is reduced by viable cells to yield purple formazan crystals. Cells were seeded in 96-well plates at a density of 40000 cells/mL (100 μL per well). Stock solutions were prepared in DMSO for complexes 1–4 and in water for cisplatin. […] For dark experiments, after overnight attachment, a dilution series of the compounds was added to the medium, and the cells were incubated for a further 72 h. For the irradiated experiments, after overnight attachment, a dilution series of the compounds was added to the medium, and the cells were preincubated for 4 h. The cells were then irradiated at 450 nm for 5 min with a Kessil Lamp (power: 3 mW/cm^2, 1.13 × 10^–8 Einstein/s at 20 cm distance between the light source and 96-well plate) and the incubation was continued until 72 h. After 72 h, the medium was removed and the cells were incubated with MTT solution in PBS (10 μL of 5 mg/mL) for 2–3 h. The formed purple formazan crystals were dissolved in 100 μL of DMSO by thorough shaking, and the absorbance at 580 nm was read using a microplate reader (FLUOstar OPTIMA, BMG Labtech). Each test was performed with at least 3 replicates and repeated at least 3 times. […]

[1] = Singlet oxygen generation, NIR emission at 1274 nm versus phenalenone; assay type: physicochemical; settings: aerated acetonitrile 5 × 10^–5 M, 298 K, excitation 365 nm, reference phenalenone
Procedure: In aerated DMSO solutions, complexes 1–3 display a fluorescence band only at ca 510 nm, attributed to ^1LL′CT/^1ILCT, due to easy quenching of the phosphorescence by oxygen. However, upon prolonged photoexcitation at 365 nm, a continuous enhancement of the phosphorescence band is observed. Simply irradiating with a hand UV–vis lamp, the initial blue-green emission gradually shifts to the orange enhanced emission. The phosphorescence increases its maximum intensity in ca 15 1, 8 2, or 12 min 3 (Figures and S23). […] This relatively rare behavior has been previously observed by us , and other groups, and is explained by the occurrence of a local sensitization caused by energy transfer from the low-energy triplet to ^3O2-producing singlet ^1O2, which is able to selectively react with the solvent creating a free oxygen microenvironment that switches-on a phosphorescence band due to ^3ILCT at 580 nm. The strong sensitivity of the phosphorescence emission in these complexes encourages us to determine their efficiency as ^1O2 sensitizers. The singlet oxygen generation of complexes 1–3 was examined in acetonitrile solution (5 × 10^–5 M) using a near-infrared detector upon excitation at 365 nm, detecting the characteristic emission profile of ^1O2 at λem ∼ 1274 nm (Figure ).

[2] = Catalytic oxidation and photooxidation of NADH monitored by 1H NMR; assay type: biochemical
From the text: NADH is a key coenzyme involved in many biocatalyzed redox reactions in living cells, and the adequate redox balance of the NADH/NAD^+ redox couple is an important indicator of the metabolic state of the cell. Indeed, the overall in-cell NADH level is higher in cancerous cells than in normal cells to ensure high cell proliferation. Therefore, any selective catalysis of intracellular NADH oxidation to NAD^+ by a metal complex in cancer cells can disrupt its intracellular redox balance, causing cell death. , The catalytic oxidation and photooxidation of NADH (2.8 mM) by 3 (0.8 mM) in DMSO/D2O (5/95 v/v) was monitored by ^1H NMR spectroscopy at 298 K (Figure S34). In the dark (NADH + 3 + dark), a new set of characteristic peaks at 9.33, 9.17, 8.81, 8.48, 8.43, 8.20, 8.16, 6.04, and 5.97 ppm, ascribed to the protons of NAD^+ (∼8%), were detected after 72 h. Light irradiation greatly accelerates the oxidation process. In fact, ∼33% of NADH was oxidized to NAD^+ after irradiation (460 nm, 2 h), with an oxidation turnover number (TON) of 1.4 after 2 h (TOF 0.7 h^–1). […] It should be noted that platinum(II) complexes showing biocatalytic activity on the NADH/NAD^+ redox couple are very scarce.
The time dependence of the catalytic oxidation and photooxidation of complex 3 (0.8 mM) with NADH (2.8 mM) in DMSO/D2O (5/95 v/v) was studied for 72 h in the dark or 2h with light irradiation (λexc = 460 nm) by ^1H NMR at 298 K. The conversion of NADH to NAD^+ was approximately calculated from the NMR data.

[Pt(Me2N-pbt)(3-OH-pic-κN,O)] [Complex 3]
photoactivity index (PI), EC50 dark / EC50 after irradiation, MCF-10A (MCF-10A; 5 min irradiation at 450 nm): < 2 | EC50 (MCF-10A; 4 h preincubation, 5 min irradiation at 450 nm, then dark until 72 h, read-out: EC50 MCF-10A light): 520 ± 50 nM | EC50 (MCF-10A; 72 h incubation at 37 °C, dark, read-out: EC50 MCF-10A dark): 1000 ± 200 nM | quantum yield (ϕΔ) of 1O2 [1]: 16.2% | TOF ([2]; 460 nm irradiation, 2 h): 0.7 h^–1 | oxidation turnover number (TON) ([2]; 460 nm irradiation, after 2 h): 1.4 | NADH oxidized to NAD+ after irradiation ([2]; NADH 2.8 mM, complex 0.8 mM, DMSO/D2O 5/95, 298 K, 460 nm, 2 h): ~33% | NAD+ formed from NADH in the dark ([2]; NADH 2.8 mM, complex 0.8 mM, DMSO/D2O 5/95, 298 K, dark, 72 h): ~8%

Reference: PMC12176268, “Structural Features and Photophysical and Antiproliferative Properties of Me2N‑pbt-Cycloplatinated Complexes with Picolinate Ligands” (Inorganic Chemistry, 2025)
